Assay results published in patent publication US20220204563A1, “DELIVERY PEPTIDES AND METHODS OF USING THE SAME” (NATIONAL INSTITUTE FOR BIOTECHNOLOGY IN THE NEGEV LTD., priority 2019, published 2022).
Primed or numbered codes have the meaning given here. No end group written: not given here. TAMRA = tetramethylrhodamine fluorescent label; FITC′ = not defined here

Columns and labels:
[1] = tested on: M. rosenbergii early vitellogenic oocytes; assay: In vitro incubation of ovary pieces with fluorophore-labelled peptides, confocal imaging of oocytes; format: cell-based, Macrobrachium rosenbergii; settings: for Distribution of TAMRA-labelled peptide in the oocyte: ovary pieces incubated with Vg-TAMRA or scVg-TAMRA separately, 6 μM, confocal; for Endocytosis into oocytes, distribution of the two fluorescent-labelled peptides: simultaneous incubation with Vg-TAMRA and control-FITC, 6 μM each; for Fluorescent intensity in oocytes compared to Vg246-253-TAMRA: ovary slices in vitro, TAMRA emission
Procedure: (§1) Ovary pieces from in-vitro or in-vivo experiments were washed with Schneider's drosophila medium without the peptides for 5 min. Then, the pieces were torn apart on a slide in one drop of the medium to better view the individual oocytes. The slides were inspected, and images were taken by a confocal microscope FV1000 (Olympus) at ×60 magnification. The excitation laser wavelength was 561 nm for the TAMRA labelled peptides and 488 nm for FITC labelled control peptides, and the emission was obtained at […], respectively.
M. rosenbergii ovary pieces of 1-3 mm with oocytes diameter of ˜150 μm (early vitellogenic ovaries) were incubated in a sterile 24-wells plate, 2 cm^2 growth area each well (Biofil®) in a biological hood. Each piece was incubated with 250 μl Schneider's drosophila culture medium with osmolality fixed to 420 mOsm/L and supplemented with FBS (10%), PSA (final concentration: Penicillin—100 units/mL, streptomycin—0.1 mg/mL, Amphotericin B—0.25 μg/mL and insulin 10 mg/ml insulin in 25 mM HEPES). The ovary pieces were incubated either with Vg-TAMRA or scVg-TAMRA or with both Vg-TAMRA and scVg-FITC simultaneously (6 μM each). The plate was incubated at room temperature for 24 and 48 hours. To test dsRNA piggybacking, 55 pmole dsRNA was conjugated to 275 pmole either Vg-TAMRA or scVg-FITC peptides. Ovary pieces were incubated with the dsGFP-Vg-TAMRA or dsGFP-scVg-FITC conjugates and cultured as stated above.
To evaluate the endocytosis capability of oocytes with respect to the newly designed Vg-derived peptides, an in vitro experiment was performed. Vg-derived and control peptides, labeled with TAMRA fluorophore, were detected by confocal microscopy. Both peptides were detected in the vicinity of the oocyte membrane (FIG. 4). […] In order to get the highest certainty regarding the internalization specificity of the Vg-derived peptides, the Vg and control peptides were labelled with an additional fluorophore (FIGS. 4E-4H), Vg peptide was labelled with TAMRA (FIGS. 4E and 4H), while the control peptide has been labelled with FITC molecule (FIG. 4F). A similar result was obtained in this experiment showing distinct distribution of the two fluorescent-labelled peptides.
Further, a dose dependent test with respect to Vg-derived peptides penetration into oocytes using Vg descending concentrations was performed (FIG. 5). Unlike the control scrambled peptide (scVg), the Vg peptide maintained similar pattern of distribution in the oocyte throughout the descending concentrations (FIG. 5, upper row).
The inventors further examined the capability and efficacy of shorter/partial sequences derived from the peptide of the invention to being internalized into M. rosenbergii oocytes. Further, the inventors examined whether homologous peptides derived from a different decapod crustacean, e.g., Litopenaeus vannamei, would also be internalized into M. rosenbergii oocytes.
The mentioned peptides were incubated in vitro with ovary slices to evaluate their internalization. […] In contrast to that, the Vg-derived peptides were capable to enter the oocyte as they were observed beyond the follicular cells inside the oocytes (red dots, FIGS. 11B-11G). […] Moreover, both L. vannamei Vg derived peptides were capable to endocytose into M. rosenbergii oocytes (FIGS. 11F-11G).

[2] = tested on: oocytes; assay: In vivo assay: peptide injection into the hemolymph of reproductive females, confocal imaging of oocytes and gills; set-up: species or system Macrobrachium rosenbergii; settings: for Fluorescent emission in oocytes after injection: mixture of both peptides injected, 5 μg/gr body weight, oocytes dissected 24 h after injection
Procedure: as §1
Solution containing the culture medium, Vg-TAMRA and scVg-FITC peptides were injected (5 μg/gr body weight) into the hemolymph sinus at the base of the fifth walking leg of a M. rosenbergii reproductive females (14.3±0.4 gr, with opaque white to yellowish ovary, FIG. 2, left). For the injection, a manual micro dispenser syringe was used (Drummond®). After injection, the animals were kept at 28° C. for 24 hours in the culture facility for freshwater prawn M. rosenbergii, at Ben-Gurion University. Vg-dsEGFR or Vg-dsPAX6 conjugates (5:1 molar ratio for conjugation, 5 μg dsRNA/g body weight) were injected twice a week at the first two weeks. From the third week, the injections were performed once a week. The females were monitored daily and upon appearance of the reproductive molt, the females were released to a tank with a male for fertilization. The embryos' development on the pleopods of their mother (FIG. 2, middle) were monitored under stereoscope, and a fraction was collected for RNA extraction and subsequent quantitative PCR analysis.
To determine whether the Vg-TAMRA peptide has the capability to specifically in vivo internalize into oocytes, a mixture of the Vg-TAMRA and the control-FITC peptides were injected into the prawn circulatory system. […] To verify that the two peptides did circulate through the prawn female body, the prawn gills were dissected and examined under the confocal microscope.

[3] = Dynamic light scattering (DLS) of dsRNA-peptide conjugates; format: physicochemical; settings: 700 bp dsRNA, dsRNA:peptide ratio 1:30 (FIG. 6B dots)
Procedure: Constant amount of dsRNA (25 pmole) solution was mixed with an increasing amount of peptide solution in an Eppendorf vial (˜1.5 mL). The total conjugation reaction volume was completed to 15 μl with DEPC treated DDW. The solutions were incubated at room temperature for 20 minutes. To evaluate peptide-dsRNA conjugation, a 1.3% agarose gel was prepared in TAE buffer. Conjugates were mixed with equal volume of loading buffer (50% glycerol and 0.5 M EDTA). Peptide-dsRNA conjugates were separated for 30 minutes at 120 V. Fluorescent emission of conjugates in gels were scanned by using a Typhoon FLA 9500 gel system (GE Healthcare®).
In order to verify whether the Vg-derived peptide was capable to piggyback and internalize a large molecule such as a dsRNA into the oocytes, a conjugation approach between the peptide and dsRNA was developed. The Vg-TAMRA and the control-FITC peptides were synthesized with a cationic poly lysine-histidine tail (KH) to allow electrostatic interactions between the peptides and the negatively charged dsRNA. The dsRNA-peptide complexes prepared at different molar ratios (peptide/dsRNA ratio: 1, 5, 10, 20 and 30) were characterized with two different assays: dynamic light scattering (DLS) and separation on agarose gel.
dsRNA of 700 bp (dsEGFR) and another one a mix of 200 and 230 bp dsRNA (dsPAX6) were prepared (FIG. 3A). […]

## CDKNIIKPAYGSYKYVEAHQESVLRK-TAMRA (CDKNIIKPAYGSYKYVEAHQESVLRK-{TAMRA}) [Vg-TAMRA]
[1]; descending concentrations 12-0.75 μM, fluorescence and overlay images
  Fluorescence intensity in comparison to the control peptide: higher intensity of the red TAMRA emission
[1]
  Distribution of TAMRA-labelled peptide in the oocyte: distributed mainly at the cytosolic side of the oocyte membrane
  Endocytosis into oocytes, distribution of the two fluorescent-labelled peptides: clearly observed
[1]; peptide concentration 0.75 μM
  Fluorescent signal in oocytes: No signal was detected
[1]; peptide concentration 1.5 μM
  Fluorescent signal in oocytes: clear fluorescent signal
[1]; peptide concentration 6 μM
  Fluorescent signal in oocytes: clear fluorescent signal
[1]; peptide concentration 12 μM
  Fluorescent signal in oocytes: clear fluorescent signal
[2]; early vitellogenic female injected simultaneously with both peptides
  Detection of peptide in gills after injection: can be detected in the gills
[2]
  Fluorescent emission in oocytes after injection: a clear 564 nm emission was seen inside the oocytes

## CQAPVKLIAYDKNKYEHEYRISVSGK-FITC (CQAPVKLIAYDKNKYEHEYRISVSGK-{FITC′}) [scVg-FITC, reference compound]
[1]; ovary slices incubated with Vg-derived peptide TAMRA and scVg-FITC simultaneously
  Internalization into M. rosenbergii oocytes: observed only on the outer area of the oocyte
[1]
  Endocytosis into oocytes, distribution of the two fluorescent-labelled peptides: only on the outer surface of the membrane
[2]; in vivo
  Detection of peptide in gills after injection: can be detected in the gills
[2]
  Fluorescent emission in oocytes after injection: absent from oocytes

## CQAPVKLIAYDKNKYEHEYRISVSGK-TAMRA (CQAPVKLIAYDKNKYEHEYRISVSGK-{TAMRA}) [scVg-TAMRA, reference compound]
[1]
  Distribution of TAMRA-labelled peptide in the oocyte: mainly dispersed on the outer surface of the oocyte
[1]; peptide concentration 0.75 μM
  Fluorescent signal in oocytes: No signal was detected
[1]; peptide concentration 1.5 μM
  Fluorescent signal in oocytes: no apparent signal
[1]; peptide concentration 6 μM
  Fluorescent signal in oocytes: weak fluorescent signal
[1]; peptide concentration 12 μM
  Fluorescent signal in oocytes: weak fluorescent signal

## DKNIIKPAYGSYKYVEAK-TAMRA (DKNIIKPAYGSYKYVEAK-{TAMRA}) [Vg237-253-TAMRA]
[1]
  Fluorescent intensity in oocytes compared to Vg246-253-TAMRA: Weaker florescent intensity

## DKNIIKPK-TAMRA (DKNIIKPK-{TAMRA}) [Vg237-244-TAMRA]
[1]
  Fluorescent intensity in oocytes compared to Vg246-253-TAMRA: Weaker florescent intensity

## KHKHKHKHKHKHKHKHKHCDKNIIKPAYGSYKYVEAHQESVLRK-TAMRA (KHKHKHKHKHKHKHKHKHCDKNIIKPAYGSYKYVEAHQESVLRK-{TAMRA}) [KH9-Vg]
[3]
  Particle radius (DLS): ~100 nm

## Vg235-260-TAMRA: 26 amino acid VgR interacting region peptide; probably the Vg-TAMRA peptide of SEQ ID NO: 22 (CDKNIIKPAYGSYKYVEAHQESVLRK; not fully specified (C-terminus); also: TAMRA label)
[1]
  Fluorescent intensity in oocytes compared to Vg246-253-TAMRA: Weaker florescent intensity
